Like-named read-outs stand apart in the source and are kept apart here.
How the values were obtained:
tPA = tPA (Homo sapiens, UniProt P00750); assay: Selectivity: tPA inhibition, chromogenic substrate S-2288; type: biochemical; details: 1.25 mM substrate, Tris pH 8.3
Experimental: (§1) The IC50 values for plasmin, tPA, thrombin and FXa were determined in the same way as for uPA. […] FX is activated with Russel's Viper Venom.
(§2) Approximately 5 mU of enzyme, and 145 μl of buffer. For tPA and thrombin Tris buffer, pH 8.3, for FXa, Tris buffer pH 8.3 with 2.5 mM CaCl2, for plasmin Tris buffer pH 7.4, and for trypsin Tris buffer pH 8.2 was used. The selectivity index was calculated as (IC50 Enzyme X)/IC50 uPA, where X is tPA, thrombin, plasmin or FXa.

FXa = FXa (Homo sapiens, UniProt P00742); assay: Selectivity: FXa inhibition, chromogenic substrate S-2772; type: biochemical; details: for inhibition at 250 µM: read-out: % inhibition at given concentration, FXa
Experimental: as §1, §2

thrombin = thrombin (Homo sapiens, UniProt P00734); assay: Selectivity: thrombin inhibition, chromogenic substrate S-2366; type: biochemical
Experimental: as §1, §2

trypsin = target: T1, trypsin (Bos taurus, UniProt P00760); assay: Selectivity: trypsin inhibition, chromogenic substrate BAPNA; type: biochemical; details: 425 μM substrate, Tris pH 8.2
T1 sequence (P00760 24-246): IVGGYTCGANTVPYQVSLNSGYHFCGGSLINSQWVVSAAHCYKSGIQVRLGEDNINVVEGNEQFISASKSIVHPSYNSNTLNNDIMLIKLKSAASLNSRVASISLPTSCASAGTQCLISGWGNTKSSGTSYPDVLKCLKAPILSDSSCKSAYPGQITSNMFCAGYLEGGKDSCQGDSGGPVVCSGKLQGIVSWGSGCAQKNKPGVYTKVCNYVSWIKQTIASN
Experimental: as §1, §2

plasmin = target: T2, plasmin (Homo sapiens, UniProt P00747); assay: Selectivity: plasmin inhibition, chromogenic substrate S-2366; type: biochemical
T2 construct: uPA mediates the proteolytic cleavage of plasminogen to give plasmin
Experimental: as §1, §2

uPA [1] = target: T3, uPA (Homo sapiens, UniProt P00749); details: Tamura et al. 2000; cited from earlier work
uPA [2] = target: T3, uPA; type: biochemical; parameters: purchased Sigma-Aldrich; details: apparent second order rate constant, 250 μM substrate
Experimental: (§3) Inhibitor stock solutions were prepared in DMSO and stored at −20° C. […] For a simple pseudo-first-order inactivation process, the activity after incubation with inhibitor (vi) varies with the inhibitor concentration (i) as described in the following equation: vi=v0·e^−kit, where v0 is the activity in absence of inhibitor, k is the second-order rate constant of inactivation, and t is the time.

uPA [3] = target: T3, uPA; assay: biochemical; type: biochemical; parameters: purchased Sigma-Aldrich
Experimental: The substrate was obtained from Chromogenix. The human enzyme was obtained from Sigma-Aldrich, the mouse uPA was obtained from Molecular Innovations.Inc (USA). […] A 50 mM Tris buffer, pH 8.8, was used. […] Activity measurements were routinely performed in duplicate. […] IC50 values were obtained by fitting the data with the 4 parameter logistics equation using Grafit 5. v=(vrange)/(1+exp(s*ln(abs(I0/IC50))))+back s: slope factor back: background v: rate I0: inhibitor concentration range: the fitted uninhibited value minus the background.
The equation assumes that y falls with increasing x.
as §3

[4] = 580 μM substrate, Tris pH 8.3, read-out: IC50 (μM) Thrombin
[5] = 580 μM substrate, Tris pH 7.4, read-out: IC50 (μM) Plasmin
[6] = 15-min pre-incubation at 37° C, 250 μM S-2444, Tris pH 8.8, read-out: IC50 (nM) uPA
[7] = 522 μM substrate, Tris pH 8.3 with […] CaCl2, read-out: IC50 (μM) FXa

Sequence of FXa (P00742 235-488 limits assumed): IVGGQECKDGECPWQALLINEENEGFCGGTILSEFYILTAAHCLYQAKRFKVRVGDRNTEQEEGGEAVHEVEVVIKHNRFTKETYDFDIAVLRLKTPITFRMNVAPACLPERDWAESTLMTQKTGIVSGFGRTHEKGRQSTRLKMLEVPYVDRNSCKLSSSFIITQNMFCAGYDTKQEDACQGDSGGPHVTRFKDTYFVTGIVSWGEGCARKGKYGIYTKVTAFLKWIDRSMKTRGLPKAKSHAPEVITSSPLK
Sequence of FXa (P00742 41-179 partner limits assumed): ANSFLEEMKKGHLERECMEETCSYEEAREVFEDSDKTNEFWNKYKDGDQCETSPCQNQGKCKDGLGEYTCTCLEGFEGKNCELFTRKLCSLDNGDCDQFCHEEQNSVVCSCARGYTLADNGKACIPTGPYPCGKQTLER
Sequence of tPA (P00750 36-562, species assumed): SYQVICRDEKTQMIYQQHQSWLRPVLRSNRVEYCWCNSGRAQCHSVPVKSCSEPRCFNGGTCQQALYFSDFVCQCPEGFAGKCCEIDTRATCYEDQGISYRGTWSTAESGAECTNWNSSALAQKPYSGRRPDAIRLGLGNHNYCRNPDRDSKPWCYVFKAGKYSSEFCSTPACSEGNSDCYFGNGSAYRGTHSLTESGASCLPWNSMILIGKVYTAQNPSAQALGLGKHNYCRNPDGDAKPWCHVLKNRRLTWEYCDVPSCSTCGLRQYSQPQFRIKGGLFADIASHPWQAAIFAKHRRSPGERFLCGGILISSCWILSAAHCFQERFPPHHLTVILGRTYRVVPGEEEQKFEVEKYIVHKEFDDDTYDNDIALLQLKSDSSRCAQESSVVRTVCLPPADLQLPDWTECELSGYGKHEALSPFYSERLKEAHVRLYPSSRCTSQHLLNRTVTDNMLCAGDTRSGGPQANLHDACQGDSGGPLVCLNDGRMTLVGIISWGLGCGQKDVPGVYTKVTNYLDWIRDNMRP
T2 sequence (P00747 581-810 limits assumed, species assumed): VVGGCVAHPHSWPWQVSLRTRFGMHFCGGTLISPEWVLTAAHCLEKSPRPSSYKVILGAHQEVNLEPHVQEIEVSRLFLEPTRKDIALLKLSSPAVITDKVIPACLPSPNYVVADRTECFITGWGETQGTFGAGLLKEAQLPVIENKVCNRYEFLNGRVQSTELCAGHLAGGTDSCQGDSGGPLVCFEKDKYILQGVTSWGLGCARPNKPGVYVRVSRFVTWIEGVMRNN
T2 sequence (P00747 97-580 partner limits assumed, species assumed): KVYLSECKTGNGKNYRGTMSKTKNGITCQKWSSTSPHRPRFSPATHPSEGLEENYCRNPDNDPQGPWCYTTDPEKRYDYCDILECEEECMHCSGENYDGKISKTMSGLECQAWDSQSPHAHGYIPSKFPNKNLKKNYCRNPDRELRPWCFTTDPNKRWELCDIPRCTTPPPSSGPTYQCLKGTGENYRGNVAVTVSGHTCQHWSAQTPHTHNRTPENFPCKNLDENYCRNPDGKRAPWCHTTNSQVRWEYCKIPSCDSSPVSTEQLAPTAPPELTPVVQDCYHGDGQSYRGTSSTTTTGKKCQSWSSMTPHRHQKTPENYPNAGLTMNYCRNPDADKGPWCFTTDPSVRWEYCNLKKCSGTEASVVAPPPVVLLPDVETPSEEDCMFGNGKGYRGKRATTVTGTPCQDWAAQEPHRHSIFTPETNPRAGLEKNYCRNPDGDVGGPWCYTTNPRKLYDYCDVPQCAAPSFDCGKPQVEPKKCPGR

Cc1ccccc1S(=O)(=O)NC(Cc1ccc(NC(=N)N)cc1)P(=O)(Oc1ccccc1)Oc1ccccc1 (centres unmarked) [Compound 7d, Diphenyl 1-(o-toluenesulfonylamino)-2-(4-guanidinophenyl)-ethanephosphonate]
IC50 (tPA): 7.3 ± 0.5 µM | % inhibition at given concentration, FXa (FXa; at 62 μM): 59% @ | IC50 (thrombin; [4]): 11.9 ± 1.7 µM | IC50 (trypsin): 0.17 ± 0.01 µM | IC50 (plasmin; [5]): 17 ± 2 µM

Z-D-Ser-Ala-Arginal
IC50 (uPA [1]): 19 nM | selectivity ratio toward tPA (uPA [1]): more than 130

COC(=O)NC(Cc1ccc(NC(=N)N)cc1)P(=O)(Oc1ccccc1)Oc1ccccc1 (centres unmarked) [Compound 35a, Methyl 1-(diphenoxyphosphoryl)-2-(4-guanidinophenyl)ethylcarbamate]
IC50 (tPA): 23 ± 6 µM | kapp (M^−1 · s^−1) uPA (uPA [2]): 62000 M⁻¹ s⁻¹ | IC50 (thrombin): 16.6 ± 2.3 µM | IC50 (uPA [3]; [6]): 3.1 ± 0.5 nM | IC50 (plasmin): 12.8 ± 2 µM

CS(=O)(=O)NC(Cc1ccc(NC(=N)N)cc1)P(=O)(Oc1ccccc1)Oc1ccccc1 (centres unmarked) [Compound 7g, Diphenyl 1-(methylsulfonylamino)-2-(4-guanidinophenyl)-ethanephosphonate]
IC50 (tPA): 8 ± 2 µM | IC50 (FXa): ~250 µM | IC50 (thrombin): ~125 µM | IC50 (plasmin; [5]): 11 ± 1 µM

N=C(N)c1ccc(C(NC(=O)OCc2ccccc2)P(=O)(Oc2ccccc2)Oc2ccccc2)cc1 (centres unmarked) [Compound 8a, Diphenyl 1-(N-benzyloxycarbonylamino)-1-(4-amidinophenyl)methanephosphonate]
IC50 (tPA): 66 ± 7 µM | IC50 (FXa; [7]): 6 ± 0.2 µM | IC50 (thrombin; [4]): 0.288 ± 0.006 µM | IC50 (plasmin; [5]): 3.6 ± 0.4 µM

CNC(=O)NC(Cc1ccc(NC(=N)N)cc1)P(=O)(Oc1ccccc1)Oc1ccccc1 (centres unmarked) [Compound 39a, Diphenyl 2-(4-guanidinophenyl)-1-(3-methylureido)ethylphosphonate]
IC50 (uPA [3]): 101000 ± 6800 nM

N=C(N)Nc1ccc(CC(NC(=O)NCc2ccccc2)P(=O)(Oc2ccccc2)Oc2ccccc2)cc1 (centres unmarked) [Compound 39b, Diphenyl 1-(3-benzylureido)-2-(4-guanidinophenyl)ethylphosphonate]
IC50 (uPA [3]): 43900 ± 3900 nM

CC(=O)NC(Cc1ccc(NC(=N)N)cc1)P(=O)(Oc1ccccc1)Oc1ccccc1 (centres unmarked) [Compound 41, Diphenyl 1-acetamido-2-(4-guanidinophenyl)ethylphosphonate]
IC50 (thrombin; [4]): 32.2 ± 1.4 µM | IC50 (uPA [3]): 9.9 ± 0.8 nM | IC50 (plasmin; [5]): 57 ± 1.3 µM

CC(C)c1ccc(C(C)C)c(S(=O)(=O)NC(Cc2ccc(NC(=N)N)cc2)P(=O)(Oc2ccccc2)Oc2ccccc2)c1C(C)C (centres unmarked) [Compound 7f, Diphenyl 1-(2,3,6-tri-isopropylbenzenesulfonyl)amino-2-(4-guanidinophenyl)-ethanephosphonate]
IC50 (tPA): 16 ± 1 µM | IC50 (FXa; [7]): 20 ± 2 µM | % inhibition at given concentration, Thrombin (thrombin; at 250 μM): 60% @ | IC50 (trypsin): 5.6 ± 0.04 µM | IC50 (plasmin; [5]): ~125 µM

N=C(N)Nc1ccc(CC(NC(=O)c2ccccc2)P(=O)(Oc2ccccc2)Oc2ccccc2)cc1 (centres unmarked) [Compound 7c, Diphenyl 1-(benzoylamino)-2-(4-guanidinophenyl)-ethanephosphonate]
IC50 (tPA): 125 µM | IC50 (FXa): > 250 µM | IC50 (uPA [3]; pH 8.8, read-out: IC50 (nM) uPA): 114 ± 11 nM | IC50 (plasmin; [5]): 14 ± 1 µM

N=C(N)c1ccc(CC(NC(=O)OCc2ccccc2)P(=O)(Oc2ccccc2)Oc2ccccc2)cc1 (centres unmarked) [Compound 8b, Diphenyl 1-(N-benzyloxycarbonylamino)-2-(4-amidinophenyl)ethanephosphonate]
IC50 (tPA): 4 ± 2 µM | inhibition at 250 µM (FXa): 65% | IC50 (thrombin; [4]): 20 ± 2 µM | IC50 (plasmin; [5]): 1.2 ± 0.1 µM

Diphenyl 1-(naphthalenesulfonylamino)-2-(4-guanidinophenyl)-ethanephosphonate [Compound 7e]
IC50 (tPA): 44 ± 10 µM | IC50 (FXa; [7]): 27 ± 2 µM | IC50 (thrombin; [4]): 8.1 ± 0.8 µM | IC50 (trypsin): 0.28 ± 0.05 µM | IC50 (plasmin; [5]): 1.2 ± 0.1 µM

CCOC(=O)NC(Cc1ccc(NC(=N)N)cc1)P(=O)(Oc1ccccc1)Oc1ccccc1 (centres unmarked) [Compound 35c, Ethyl 1-(diphenoxyphosphoryl)-2-(4-guanidinophenyl)ethylcarbamate]
IC50 (tPA): 57 ± 14 µM | kapp (M^−1 · s^−1) uPA (uPA [2]): 40000 M⁻¹ s⁻¹ | IC50 (thrombin; [4]): 3.8 ± 0.2 µM | IC50 (uPA [3]; [6]): 8 ± 3 nM | IC50 (plasmin; [5]): 16 ± 3 µM

CC(=O)Nc1ccc(OP(=O)(Oc2ccc(NC(C)=O)cc2)C(Cc2ccc(NC(=N)N)cc2)NS(C)(=O)=O)cc1 (centres unmarked) [Compound 9c, Di-(4-acetamidophenyl) 1-(methylsulfonylamino)-2-(4-guanidinophenyl)-ethanephosphonate]
IC50 (tPA): 3.7 ± 0.4 µM | inhibition at 250 µM (FXa): 55% | IC50 (thrombin; [4]): 2.35 ± 0.06 µM | IC50 (uPA [3]; [6]): 3.5 ± 0.5 nM | IC50 (plasmin; [5]): 2 ± 0.4 µM

N=C(N)Nc1ccc(CC(N)P(=O)(Oc2ccccc2)Oc2ccccc2)cc1 (centres unmarked) [Compound 34d, Diphenyl 1-amino-2-(4-guanidinophenyl)ethylphosphonate]
IC50 (uPA [3]; [6]): 1600 ± 130 nM

CC(=O)Nc1ccc(OP(=O)(Oc2ccc(NC(C)=O)cc2)C(Cc2ccc(NC(=N)N)cc2)NC(=O)OCc2ccccc2)cc1 (centres unmarked) [Compound 9b, Di-(4-acetamidophenyl) 1-(benzyloxycarbonylamino)-2-[(4-guanidino)phenyl]ethanephosphonate]
IC50 (tPA): 7 ± 1 µM | IC50 (FXa; [7]): 100 ± 24 µM | IC50 (thrombin; [4]): 0.39 ± 0.03 µM | IC50 (uPA [3]; [6]): 4.2 ± 0.9 nM | IC50 (plasmin; [5]): 0.9 ± 0.2 µM

CCC(NC(=O)OCc1ccccc1)(c1ccc(C(=N)N)cc1)P(=O)(Oc1ccccc1)Oc1ccccc1 (centres unmarked) [Compound 8c, Diphenyl 1-(N-benzyloxycarbonylamino)-1-(4-amidinophenyl)propanephosphonate]
IC50 (tPA): 68 ± 9 µM | IC50 (FXa; [7]): 13.7 ± 1.3 µM | IC50 (thrombin; [4]): 17 ± 2 µM | IC50 (trypsin): 3.5 ± 0.2 µM | IC50 (plasmin; [5]): 6.2 ± 0.4 µM

N=C(N)Nc1ccc(CC(NC(=O)OCc2ccccc2)P(=O)(Oc2ccccc2)Oc2ccccc2)cc1 (centres unmarked) [Compound 7b, Diphenyl 1-(benzyloxycarbonylamino)-2-(4-guanidinophenyl)-ethanephosphonate]
IC50 (tPA): 12 ± 0.8 µM | IC50 (FXa; [7]): 100 ± 20 µM | IC50 (thrombin; [4]): 2.4 ± 0.4 µM | IC50 (plasmin; [5]): 3 ± 0.6 µM
